Measured values reported in PubChem BioAssay (NCI).
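Results reflect a 48-hour exposure of cells in 96-well plates to compound at five concentrations. GI50 = concentration required for 50% inhibition of growth. TGI marks complete inhibition of growth.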

Legend:
Assay in all cases: inhibition of tumour cell growth, NCI panel, 48 h
CCRF-CEM leukemia = test system: CCRF-CEM leukemia
SW-620 colon = test system: SW-620 colon
SR leukemia = test system: SR leukemia
NCI-H522 lung = test system: NCI-H522 lung
SF-295 CNS = test system: SF-295 CNS
786-0 renal = test system: 786-0 renal
U251 CNS = test system: U251 CNS
RXF 393 renal = test system: RXF 393 renal
UACC-257 melanoma = test system: UACC-257 melanoma
KM12 colon = test system: KM12 colon

Compound | TGI (CCRF-CEM leukemia) [µM] | TGI (SW-620 colon) [µM] | TGI (SR leukemia) [µM] | TGI (NCI-H522 lung) [µM] | TGI (SF-295 CNS) [µM] | TGI (786-0 renal) [µM] | TGI (U251 CNS) [µM] | TGI (RXF 393 renal) [µM] | TGI (UACC-257 melanoma) [µM] | TGI (KM12 colon) [µM] | GI50 (CCRF-CEM leukemia) [µM] | GI50 (SW-620 colon) [µM] | GI50 (SR leukemia) [µM] | GI50 (KM12 colon) [µM] | GI50 (NCI-H522 lung) [µM] | GI50 (SF-295 CNS) [µM] | GI50 (786-0 renal) [µM] | GI50 (U251 CNS) [µM] | GI50 (UACC-257 melanoma) [µM] | GI50 (RXF 393 renal) [µM]
C[C@@H]1C[C@H]2CC[C@H](O2)[C@H](C)C(=O)O[C@@H](C)C[C@@H]2CC[C@@H](O2)[C@@H](C)C(=O)O[C@H](C)C[C@H]2CC[C@H](O2)[C@H](C)C(=O)O[C@@H](C)C[C@@H]2CC[C@@H](O2)[C@@H](C)C(=O)O1 | 16.2 | > 100 | > 42.8 | 0.68 | 0.659 | 41.8 | > 100 | > 100 | 0.806 |  |  |  |  |  |  |  |  |  |  | 
Cc1[nH]ccc2c1[nH]c1cc(=O)ccc12 | > 100 | > 100 |  |  | > 100 | > 100 | > 100 | > 100 | > 100 | > 100 |  |  |  |  |  |  |  |  |  | 
CN(C)C(=O)OC(Cn1cncn1)c1ccc(Cl)cc1Cl (configuration not stated) |  | > 100 |  | > 100 | > 100 | > 100 | > 100 | > 100 | > 100 | > 100 |  |  |  |  |  |  |  |  |  | 
O=C(CN1CCOCC1)Nc1nc(-c2ccc(Cl)cc2)cs1 | 63.9 | > 100 |  |  | > 100 | > 100 | > 100 |  |  | 48.1 |  |  |  |  |  |  |  |  |  | 
COc1cccc2c1c(C(=O)C(=O)Nc1cc(C)no1)cn2Cc1ccc(F)cc1 | > 100 | > 100 | > 100 | > 100 | > 100 | > 100 | > 100 |  | 71.8 | > 44.4 | 6.24 | 3.68 | 0.573 | 2.19 | 8.51 | 6.26 | 19.2 | 4.78 | 9.25 | 
C#CCOCn1cnc2c(Cl)ncnc21 | > 100 | > 100 | > 100 | > 100 | > 100 | > 100 | > 100 |  | > 100 | > 100 |  |  |  |  |  |  |  |  |  | 
Nc1nc2c(c3ncncc13)C(c1cccc(C(F)(F)F)c1)Cc1ncncc1-2 (configuration not stated) | 23.3 | > 100 |  | 26.1 | 10.7 | 27.4 | 13.6 | 8.81 | 62.1 | 35.5 | 4.28 | 4.51 |  | 4.43 | 4.66 | 2.99 | 4.43 | 3.69 | 9.56 | 2.96
CC1=Nc2ccccc2S/C1=C(/C)NNC(=O)C(N)=O | > 100 | > 100 |  | > 100 | > 100 | > 100 | > 100 | > 100 | > 100 | > 100 |  |  |  |  |  |  |  |  |  | 
CC1=C(C)C(=O)c2c(cc3ccccn23)C1=O | > 100 | 35.5 | 72.5 |  | 31.8 | 72.9 | 27.2 | 27.9 |  | 31.3 |  |  |  |  |  |  |  |  |  | 
COc1ccc(-c2n/c(=C\c3c(O)[nH]c4ccc(OC)cc34)cc3c2=Nc2ccccc2-3)cc1 |  | 6.9 |  |  | 24.1 | 3.37 |  |  | 4.48 | > 100 |  | 2.4 |  | 3.8 |  | 3.9 | 1.92 |  | 2.07 | 
O=C1[C@H]2ON(c3ccccc3)C(c3ccccc3Cl)[C@H]2C(=O)N1c1ccc(Cc2ccc(N3C(=O)[C@@H]4ON(c5ccccc5)C(c5ccccc5Cl)[C@@H]4C3=O)cc2)cc1 (some centres not stated) | > 100 | > 100 | > 100 | > 100 | > 100 | > 100 | > 100 |  | > 100 | > 100 |  |  |  |  |  |  |  |  |  | 
N#Cc1c(N2CCCC2)[nH]c(=O)c(C(c2c(Cl)cccc2Cl)c2c(O)c(C#N)c(N3CCCC3)[nH]c2=O)c1O | 5.06 | 18.4 |  | 35.1 | 37.4 | > 100 | 95.1 | 15.4 | 26.7 | 54 | 1.91 | 3.91 |  | 22.6 | 9.74 | 18.7 | 4.34 | 13.4 | 12.4 | 2.69
CC1C=C(OC(=O)c2ccccc2)C(=O)C(n2cc(F)c(=O)[nH]c2=O)O1 (configuration not stated) | > 100 | > 100 |  | > 100 | > 100 | > 100 | > 100 |  | > 100 | > 100 |  |  |  |  |  |  |  |  |  | 
Cc1cc(N(CCC#N)CCC#N)ccc1N=Nc1cccc(C(=O)O)c1 | > 100 | > 100 |  | > 100 | > 100 | > 100 | > 100 | > 100 | > 100 | > 100 |  |  |  |  |  |  |  |  |  | 
Oc1cccc2ccc(N/N=C/c3cc(CN4CCCCC4)c(O)c4ncccc34)nc12 | 10.8 | 3.52 |  | 1.21 | 3.07 | 1.7 | 1.28 |  | 1.04 | 1.85 | 0.0558 | 0.0362 |  | 0.0449 | 0.0314 | 0.0686 | 0.0826 | 0.0329 | 0.256 | 
CCN(CC)c1ccc(C(=O)c2ccccc2C(=O)O)c(O)c1 | > 100 | > 100 |  | > 100 | > 100 | > 100 | > 100 | > 100 | > 100 | > 100 |  |  |  |  |  |  |  |  |  | 
CCCNC1=C(C(=O)OCC)C(=O)CO1 | > 100 | > 100 | > 100 |  | > 100 | > 100 | > 100 | > 100 | > 100 |  |  |  |  |  |  |  |  |  |  | 
CCCCC(CC)CN=C(N)NC(N)=NCCCCCCN=C(N)NC(N)=NCC(CC)CCCC (configuration not stated) |  |  |  |  |  | 4.91 |  | 6.43 | 8.73 |  |  |  |  |  |  |  | 2.16 |  | 2.62 | 2.27
COc1ccc(OC)c(NC(=O)C2=C(C)NC(C)=C(C(=O)Nc3cc(OC)ccc3OC)C2c2ccccc2)c1 | > 100 | > 100 |  | > 100 | > 100 | > 100 | > 100 | > 100 | > 100 | > 100 |  |  |  |  |  |  |  |  |  | 
COc1cc(C(=O)C/C(CCCC(=O)Nc2ccccc2[N+](=O)[O-])=N/NC(=O)c2cc3ccccc3cc2O)ccc1O | > 31.6 | > 100 |  | > 100 | > 100 | > 100 | > 100 | > 100 | 82 | 82.5 |  |  |  |  |  |  |  |  |  | 
Cc1ccc(N=Cc2ccc3c(c2)OCO3)cc1C | > 100 | > 100 | > 100 | > 100 | > 100 | > 100 |  | > 100 |  | > 100 |  |  |  |  |  |  |  |  |  | 
